We go through three compounds from patent publication US20150150888A1, “COMBINATION OF SELECTIVE PROGESTERONE-RECEPTOR MODULATORS AND NONSTEROIDAL ANTI-INFLAMMATORY DRUGS” (LABORATOIRE HRA-PHARMA, priority 2012, published 2015).

Test [1] concerns LH-induced ovarian follicle rupture. As to the kind of experiment: ovarian hyperstimulation (superovulation) model: counting the oocytes released into the oviducts. Format: in vivo, CD1 mice. The note with it: for number of oocytes released into the oviducts compared with the control group: oocytes counted 18 h after hCG. On the procedure:
The effect of the combined administration of ulipristal acetate (UPA) and of a non-steroidal anti-inflammatory agent (NSAID) on LH-induced ovarian follicle rupture was evaluated in an animal model of ovarian hyperstimulation (superovulation model).
(§1) 24 to 28-day-old immature CD1 mice were subjected to ovarian hyperstimulation by injection of 5 IU of PMSG (pregnant mare's serum gonadotropin) followed, 48 h later, by 5 IU of hCG (chorionic gonadotropin hormone) intraperitoneally. The mice were divided up into several groups, each of 10 mice. 8 hours after the hCG injection, the mice were administered, intraperitoneally, with either the compound(s) to be tested, or the placebo (vehicle). The mice were euthanized 18 hours after the hCG injection. The effect of the compound(s) on follicular rupture and therefore ovulation was determined by counting the oocytes released into the oviducts. In experiment series No. 2, a morphological and histological examination of the ovaries was carried out so as to evaluate the presence of unruptured follicles and/or of yellow bodies in the ovaries of each group of animals.
Series 1: • Group 1: placebo • Group 2: 3 mg/kg of piroxicam • Group 3: 10 mg/kg of piroxicam • Group 4: 30 mg/kg of piroxicam.
Series 2: • Group 1: placebo • Group 2: 40 mg/kg of ulipristal acetate • Group 3: 40 mg/kg of ulipristal acetate+3 mg/kg of piroxicam • Group 4: 40 mg/kg of ulipristal acetate+30 mg/kg of piroxicam. […]

Test [2] has the same test system. As to the kind of experiment: morphological and histological examination of the ovaries (unruptured follicles, yellow bodies) in the superovulation model. Format: in vivo, CD1 mice. The settings on record: 40 mg/kg UPA in the absence of piroxicam, compared with groups 3 and 4. On the procedure:
as §1

The test system of test [3] is follicular rupture. The note with it: administration after the LH peak; cited from earlier work.
The conditions of test [4]: single dose of 30 mg within 72 or 120 hours after sexual intercourse; cited from earlier work.

With `CC(C)Cc1ccc(C(C)C(=O)O)cc1` (stereo not drawn) [ibuprofen], the “effect on ovulation compared with the control group” value in test [1] (ibuprofen alone, dose between 15 mg and 150 mg (per kg)) was “no significant effect”.

Regarding `CN1C(C(=O)Nc2ccccn2)=C(O)c2ccccc2S1(=O)=O` [piroxicam], the “number of oocytes released into the oviducts compared with the control group” value is reported as “does not significantly reduce” in test [1] (piroxicam 3 mg/kg i.p. 8 h after hCG), “does not significantly reduce” in test [1] (piroxicam 10 mg/kg i.p. 8 h after hCG) and “significantly reduce” in test [1] (piroxicam 30 mg/kg i.p. 8 h after hCG).

Regarding `CC(=O)O[C@]1(C(C)=O)CCC2C3CCC4=CC(=O)CCC4=C3[C@@H](c3ccc(N(C)C)cc3)C[C@@]21C` (stereo partly drawn) [ulipristal acetate, 17α-acetoxy-11β-[4-N,N-dimethylaminophenyl)-19-norpregna-4,9-diene-3,20-dione], the “yellow bodies (corpus luteum) in histological sections” value in test [2] is “more numerous”. The “inhibition of follicular rupture during the 5 days following administration, cases” value in test [3] is 8.3%. In addition, the “prevention of unwanted pregnancy after unprotected or poorly protected sexual intercourse” value in test [4] was “safe and effective”. For the same compound, in test [1] (40 mg/kg UPA 8 h after hCG injection, piroxicam series 2), the “mean number of oocytes released compared with the control group” value was “approximately −50%”. Moreover, in test [1] (group 2: 40 mg/kg ulipristal acetate, ibuprofen series 2), the “number of oocytes released compared with the control group” value is on record as “significant decrease”.
